Measured values as given in ChEMBL document CHEMBL1159152, “A novel bromopyrrole alkaloid from the sponge Agelas longissima with antiserotonergic activity” (Bioorg Med Chem Lett, 1995).

What was measured:
Rattus norvegicus = species on record: Rattus norvegicus; assay: In vitro antiserotonergic activity on rat stomach fundus strip; assay type: functional
[1] = target: Serotonin (5-HT) receptor; assay: Affinity against 5-hydroxytryptamine receptor was determined; assay type: protein assay, Rattus norvegicus

O=C([O-])c1ccc[n+](CCOC(=O)c2cc(Br)c[nH]2)c1
IC50 (Rattus norvegicus): 80 µM | pA2 [1]: 6.2
